According to patent US20070010399A1, “Crop plant-compatible herbicidal compositions comprising herbicides and safeners” (priority 2005, published 2007):
Where two headings read alike, the source gives them in different places.

How the values were obtained:
Format in all cases: in vivo
corn [1] = assay: Herbicidal pre-emergence action: damage to corn
Source text: Seeds of monocotyledonous and dicotyledonous weed and crop plants are placed into sandy loam in cardboard pots and covered with soil. The herbicidal compositions according to the invention, formulated in the form of wettable powders or emulsion concentrates, are then applied as an aqueous suspension or emulsion with a water application rate of 600 to 800 l/ha (converted) in different dosages to the surface of the covering soil. After the treatment, the pots are placed in a greenhouse and kept under good growth conditions for the weeds. Optical scoring of the damage to the plants or the emergence damage is carried out after emergence of the test plants after a test period of 3 to 4 weeks, by comparison with untreated controls.
(§1) The herbicidal activity or damage is in each case stated in percent: 100% activity=the plants have died, 0% activity=like untreated control plants. The abbreviation “a.i.” means active ingredient.

corn [2] = test system: corn
Description: Seeds of monocotyledonous and dicotyledonous weed and crop plants are placed into sandy loam in wood fiber pots or in plastic pots, covered with soil and cultivated in a greenhouse, including during the vegetation period outdoors outside of the greenhouse, under good growth conditions. 2-3 weeks after sowing, the test plants are treated at the one- to three-leaf stage. The herbicidal compositions according to the invention, formulated as wettable powders (WP) or liquid (EC) are, in various dosages with a water application rate of 300 l/ha (converted), with added wetting agent (0.2 to 0.3%), sprayed onto the plants and the surface of the soil. 3 to 4 weeks after the treatment of the test plants, the effect of the preparations is rated visually in comparison to untreated controls.
The abbreviation “a.i.” means active ingredient.

corn [3] = conditions: seed treatment, post-emergence; reduction of corn damage by seed dressing with A3 0.5 g/kg; printed in the line of the herbicide alone
corn [4] = assay: Treatment of corn seed with safener, herbicide pre-emergence; conditions: reduction of corn damage by seed dressing with A3 0.5 g/kg, printed in the line of the herbicide alone
Description: Corn seed is treated (dressed) with various amounts of a safener and then placed-in sandy loam and covered with soil. The herbicides, formulated as emulsifiable concentrates or dust, are applied using a water application rate of 300 to 800 l/ha (converted) at various dosages to the surface of the covering soil. The optical scoring of the damage to the useful plants is carried out 3 to 5 weeks after the treatment.
as §1
In Tables 3 and 4, the dosage of the herbicide (component B) is stated in gram per hectare and that of the safener (component A) is stated in gram per kilogram of seed.

[5] = pre-emergence, reduction of corn damage by adding safener A3 to the herbicide, printed in the line of the herbicide alone, spans both lines
[6] = post-emergence, reduction of corn damage by adding safener A3 to the herbicide, printed in the line of the herbicide alone, spans both lines

Compound: COc1nn(C(=O)NS(=O)(=O)c2ccccc2OC(F)(F)F)c(=O)n1C [Component B1.1, flucarbazone]
- Damage reduced by (corn [1]; [5]): 78%
- Damage reduced by (corn [2]; [6]): 70%
- Damage reduced by (corn [3]): 80%

Compound: COc1cc(OC)nc(NC(=O)NS(=O)(=O)c2cc(NC=O)ccc2C(=O)N(C)C)n1 [Component B1.2, foramsulfuron]
- Damage reduced by (corn [2]; in vivo): 100%

Compound: COc1nc(C)nc(NC(=O)NS(=O)(=O)c2cc(I)ccc2C(=O)O)n1 [Component B1.3, iodosulfuron]
- Damage reduced by (corn [1]; in vivo): 69%

Compound: COc1cc(OC)n2nc(S(=O)(=O)Nc3c(Cl)ccc(C)c3Cl)nc2n1 [Component B1.4, metosulam]
- Damage reduced by (corn [1]; in vivo): 33%

Compound: COc1nc(C)nc(=NC(=O)NS(=O)(=O)c2ccccc2C(=O)O)[nH]1 [Component B1.5, metsulfuron]
- Damage reduced by (corn [2]; [6]): 80%
- Damage reduced by (corn [3]): 80%

Compound: COc1cc(OC)nc(NC(=O)NS(=O)(=O)c2ncccc2C(=O)N(C)C)n1 [Component B1.6, nicosulfuron]
- Damage reduced by (corn [1]; [5]): 67%

Compound: COc1nc(C)nc(NC(=O)NS(=O)(=O)c2ccccc2CCC(F)(F)F)n1 [Component B1.8, prosulfuron]
- Damage reduced by (corn [1]; in vivo): 67%

Compound: COc1nc(C)nc(NC(=O)NS(=O)(=O)c2ccsc2C(=O)O)n1 [Component B1.9, thifensulfuron]
- Damage reduced by (corn [1]; [5]): 100%

Compound: COc1nc(C)nc(N(C)C(=O)NS(=O)(=O)c2ccccc2C(=O)O)n1 [Component B1.10, tribenuron]
- Damage reduced by (corn [1]; [5]): 50%
- Damage reduced by (corn [4]): 60%

Compound: CCOc1nc(F)cc2nc(S(=O)(=O)Nc3c(Cl)cccc3C(=O)OC)nn12 [Component B1.11, cloransulam-methyl]
- Damage reduced by (corn [1]; in vivo): 43%
- Damage reduced by (corn [2]; in vivo): 50%

Compound: COc1cc(Cl)nc(NC(=O)NS(=O)(=O)c2ccccc2C(=O)O)n1 [Component B1.12, chlorimuron]
- Damage reduced by (corn [2]; [6]): 86%
- Damage reduced by (corn [3]): 71%

Compound: CCOc1ccccc1OS(=O)(=O)NC(=O)Nc1nc(OC)cc(OC)n1 [Component B1.13, ethoxysulfuron]
- Damage reduced by (corn [1]; in vivo): 50%
- Damage reduced by (corn [2]; in vivo): 50%

Compound: Cc1ccn2nc(S(=O)(=O)Nc3c(F)cccc3F)nc2n1 [Component B1.16, flumetsulam]
- Damage reduced by (corn [1]; in vivo): 57%
- Damage reduced by (corn [2]; in vivo): 43%

Compound: COc1cc(OC)nc(NC(=O)NS(=O)(=O)c2c(C(=O)O)c(Cl)nn2C)n1 [Component B1.17, halosulfuron]
- Damage reduced by (corn [2]; in vivo): 100%

Compound: COCc1cnc(C2=NC(C)(C(C)C)C(=O)N2)c(C(=O)O)c1 (stereo not drawn) [Component B1.18, imazamox]
- Damage reduced by (corn [2]; [6]): 40%

Compound: Cc1cnc(C2=NC(=O)C(C)(C(C)C)N2)c(C(=O)O)c1 (stereo not drawn) [Component B1.19, imazapic]
- Damage reduced by (corn [2]; in vivo): 33%

Compound: CCc1cnc(C2=NC(C)(C(C)C)C(=O)N2)c(C(=O)O)c1 (stereo not drawn) [Component B1.21, imazethapyr]
- Damage reduced by (corn [2]; in vivo): 71%

Compound: COc1cc(OC)nc(NC(=O)NS(=O)(=O)c2cc(CNS(C)(=O)=O)ccc2C(=O)O)n1 [Component B1.22, mesosulfuron]
- Damage reduced by (corn [1]; [5]): 56%

Compound: CCCOc1nn(C(=O)[N-]S(=O)(=O)c2ccccc2C(=O)OC)c(=O)n1C.[Na+] [Component B1.23, propoxycarbazone]
- Damage reduced by (corn [3]): 68%

Compound: COc1cc(OC)nc(NC(=O)NS(=O)(=O)N(C)S(C)(=O)=O)n1 [Component B1.25, amidosulfuron]
- Damage reduced by (corn [2]; in vivo): 80%

Compound: COc1nc(C)nc(NC(=O)NS(=O)(=O)c2ccccc2Cl)n1 [Component B1.26, chlorsulfuron]
- Damage reduced by (corn [2]; in vivo): 86%

Compound: COc1nc(C)nc(NC(=O)NS(=O)(=O)c2ccccc2OCCCl)n1 [Component B1.28, triasulfuron]
- Damage reduced by (corn [1]; in vivo): 71%

Compound: COc1cc(OC)nc(NC(=O)NS(=O)(=O)c2nc(C(F)(F)F)ccc2C(=O)O)n1 [Component B1.31, flupyrsulfuron]
- Damage reduced by (corn [2]; [6]): 75%
- Damage reduced by (corn [3]): 75%

Compound: COc1cc(OC)nc(NC(=O)NS(=O)(=O)c2c(C(=O)O)cnn2C)n1 [Component B1.32, pyrazosulfuron]
- Damage reduced by (corn [1]; [5]): 38%

Compound: CCS(=O)(=O)c1cccnc1S(=O)(=O)NC(=O)Nc1nc(OC)cc(OC)n1 [Component B1.36, rimsulfuron]
- Damage reduced by (corn [2]; in vivo): 100%

Compound: CS(=O)(=O)c1ccc(C(=O)C2C(=O)CCCC2=O)c(Cl)c1 [Component B2.1, sulcotrione]
- Damage reduced by (corn [2]; [6]): 77%

Compound: CS(=O)(=O)c1ccc(C(=O)C2C(=O)CCCC2=O)c([N+](=O)[O-])c1 [Component B2.3, mesotrione]
- Damage reduced by (corn [2]; [6]): 83%

Compound: Cc1c(C(=O)c2cnn(C)c2O)ccc(S(C)(=O)=O)c1C1=NOCC1 [Component B2.4, topramezone]
- Damage reduced by (corn [2]; [6]): 64%

Compound: CSc1nnc(C(C)(C)C)c(=O)n1N [Component B3.1, metribuzin]
- Damage reduced by (corn [1]; [5]): 50%

Compound: CCCN(CCC)C(=O)SCC [Component B4.1, EPTC]
- Damage reduced by (corn [2]; [6]): 62%

Compound: CCc1cccc(C)c1N(C(=O)CCl)[C@@H](C)COC [Component B5.2, S-metolachlor]
- Damage reduced by (corn [1]; [5]): 78%

Compound: COc1c(Cl)ccc(Cl)c1C(=O)O [Component B7.1, dicamba]
- Damage reduced by (corn [2]; in vivo): 100%

Compound: CCC(CC)Nc1c([N+](=O)[O-])cc(C)c(C)c1[N+](=O)[O-] [Component B10.1, pendimethalin]
- Damage reduced by (corn [1]; [5]): 54%
